# Assay results published in patent US11208412B2 (DAEGU-GYEONGBUK MEDICAL INNOVATION FOUNDATION, priority 2017, dated 2021).
# Assays:
# Assay in all cases: Kinase selectivity, DiscoverX scanMAX Kinase assay panel (% control)
# Format in all cases: binding
# [1] = target: T1, kinases of the scanMAX Kinase assay panel (Homo sapiens, UniProt O60285); conditions: ARK5; 1 uM
# T1 construct: purchased DiscoverX Co. (contract measurement) scanMAX Kinase assay panel
# T1 sequence (O60285 1-661): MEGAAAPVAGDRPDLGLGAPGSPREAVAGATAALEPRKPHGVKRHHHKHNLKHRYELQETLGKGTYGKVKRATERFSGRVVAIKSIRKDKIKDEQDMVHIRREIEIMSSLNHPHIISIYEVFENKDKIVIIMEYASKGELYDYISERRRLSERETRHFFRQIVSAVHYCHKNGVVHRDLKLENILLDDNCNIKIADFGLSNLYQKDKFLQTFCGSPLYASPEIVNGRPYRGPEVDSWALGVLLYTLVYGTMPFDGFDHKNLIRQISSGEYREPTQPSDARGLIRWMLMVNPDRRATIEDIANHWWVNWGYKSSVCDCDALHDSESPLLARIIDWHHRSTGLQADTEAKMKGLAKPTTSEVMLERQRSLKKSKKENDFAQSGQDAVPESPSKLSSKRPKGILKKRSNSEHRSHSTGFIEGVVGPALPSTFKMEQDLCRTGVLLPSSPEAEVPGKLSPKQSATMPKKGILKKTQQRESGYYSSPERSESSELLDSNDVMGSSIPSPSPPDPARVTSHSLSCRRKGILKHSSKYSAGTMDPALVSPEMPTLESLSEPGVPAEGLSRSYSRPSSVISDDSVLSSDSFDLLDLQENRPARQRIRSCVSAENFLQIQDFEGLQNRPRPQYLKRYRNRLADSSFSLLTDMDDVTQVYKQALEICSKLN
# Method in brief: (§1)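 Read-out is % control, normalised so a positive-control compound sits at 0% and DMSO at 100%: (test − positive)/(negative − positive)×100. Each kinase received the compound at 1 uM in DMSO. A value below 35% counts as activity.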
# [2] = target: T2, kinases of the scanMAX Kinase assay panel (Homo sapiens, UniProt P11362); conditions: FGFR1; 1 uM
# T2 construct: purchased DiscoverX Co. (contract measurement) scanMAX Kinase assay panel
# Method in brief: as §1
# [3] = target: T3, kinases of the scanMAX Kinase assay panel (Homo sapiens, UniProt P11802); conditions: 1 uM
# T3 construct: purchased DiscoverX Co. (contract measurement) scanMAX Kinase assay panel
# Method in brief: as §1
# [4] = target: T4, kinases of the scanMAX Kinase assay panel (Homo sapiens, UniProt P12931); conditions: kinase SRC; 1 uM in DMSO
# T4 construct: purchased DiscoverX Co. (contract measurement) scanMAX Kinase assay panel
# Method in brief: as §1
# [5] = target: T5, kinases of the scanMAX Kinase assay panel (Homo sapiens, UniProt P21860); conditions: ERBB3; 1 uM
# T5 construct: purchased DiscoverX Co. (contract measurement) scanMAX Kinase assay panel
# Method in brief: as §1
# [6] = target: T6, kinases of the scanMAX Kinase assay panel (Homo sapiens, UniProt P51617); conditions: IRAK1; 1 uM
# T6 construct: purchased DiscoverX Co. (contract measurement) scanMAX Kinase assay panel
# Method in brief: as §1
# [7] = target: T7, kinases of the scanMAX Kinase assay panel (Homo sapiens, UniProt Q16513); conditions: PKN2; 1 uM
# T7 construct: purchased DiscoverX Co. (contract measurement) scanMAX Kinase assay panel
# Method in brief: as §1
# [8] = target: T8, kinases of the scanMAX Kinase assay panel (Homo sapiens, UniProt Q8TDX7); conditions: NEK7; 1 uM
# T8 construct: purchased DiscoverX Co. (contract measurement) scanMAX Kinase assay panel
# Method in brief: as §1
# [9] = target: T9, kinases of the scanMAX Kinase assay panel (Homo sapiens, UniProt Q9NRP7); conditions: kinase STK36; 1 uM in DMSO
# T9 construct: purchased DiscoverX Co. (contract measurement) scanMAX Kinase assay panel
# T9 sequence (Q9NRP7 1-1315): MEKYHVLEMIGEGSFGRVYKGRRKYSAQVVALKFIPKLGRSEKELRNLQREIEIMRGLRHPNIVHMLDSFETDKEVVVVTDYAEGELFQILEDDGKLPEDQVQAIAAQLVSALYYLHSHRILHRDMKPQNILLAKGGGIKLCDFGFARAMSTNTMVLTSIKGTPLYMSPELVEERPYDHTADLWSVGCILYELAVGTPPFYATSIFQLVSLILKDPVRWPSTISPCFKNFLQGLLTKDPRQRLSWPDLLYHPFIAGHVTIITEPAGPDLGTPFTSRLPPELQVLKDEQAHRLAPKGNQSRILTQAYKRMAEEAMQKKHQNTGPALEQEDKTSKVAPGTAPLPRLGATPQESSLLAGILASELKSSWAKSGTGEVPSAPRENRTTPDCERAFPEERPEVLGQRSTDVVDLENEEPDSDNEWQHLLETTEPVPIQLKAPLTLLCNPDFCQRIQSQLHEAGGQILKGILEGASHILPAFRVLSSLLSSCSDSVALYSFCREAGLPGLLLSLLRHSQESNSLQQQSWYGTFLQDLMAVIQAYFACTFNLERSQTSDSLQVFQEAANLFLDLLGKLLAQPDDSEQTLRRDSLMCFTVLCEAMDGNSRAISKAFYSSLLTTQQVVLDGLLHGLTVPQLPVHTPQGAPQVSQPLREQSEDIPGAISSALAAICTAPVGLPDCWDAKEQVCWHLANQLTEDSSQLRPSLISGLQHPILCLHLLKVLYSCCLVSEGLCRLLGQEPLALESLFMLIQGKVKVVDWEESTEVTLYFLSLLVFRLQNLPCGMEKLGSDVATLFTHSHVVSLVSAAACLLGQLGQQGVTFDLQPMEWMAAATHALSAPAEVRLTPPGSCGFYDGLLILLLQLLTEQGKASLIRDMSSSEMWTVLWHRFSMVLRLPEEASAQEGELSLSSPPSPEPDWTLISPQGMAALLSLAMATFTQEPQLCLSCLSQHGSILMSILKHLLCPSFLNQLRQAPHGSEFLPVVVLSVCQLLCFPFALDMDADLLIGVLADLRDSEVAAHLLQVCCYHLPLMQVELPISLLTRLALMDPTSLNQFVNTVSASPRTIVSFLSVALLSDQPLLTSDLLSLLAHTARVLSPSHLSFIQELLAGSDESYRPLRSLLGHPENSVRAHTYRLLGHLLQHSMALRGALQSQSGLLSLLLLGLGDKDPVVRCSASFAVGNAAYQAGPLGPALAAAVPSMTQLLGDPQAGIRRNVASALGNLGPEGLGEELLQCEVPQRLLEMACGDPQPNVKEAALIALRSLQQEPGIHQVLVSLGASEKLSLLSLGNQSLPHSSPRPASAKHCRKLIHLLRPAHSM
# Method in brief: as §1
# T7 sequence (Q16513 whole entry): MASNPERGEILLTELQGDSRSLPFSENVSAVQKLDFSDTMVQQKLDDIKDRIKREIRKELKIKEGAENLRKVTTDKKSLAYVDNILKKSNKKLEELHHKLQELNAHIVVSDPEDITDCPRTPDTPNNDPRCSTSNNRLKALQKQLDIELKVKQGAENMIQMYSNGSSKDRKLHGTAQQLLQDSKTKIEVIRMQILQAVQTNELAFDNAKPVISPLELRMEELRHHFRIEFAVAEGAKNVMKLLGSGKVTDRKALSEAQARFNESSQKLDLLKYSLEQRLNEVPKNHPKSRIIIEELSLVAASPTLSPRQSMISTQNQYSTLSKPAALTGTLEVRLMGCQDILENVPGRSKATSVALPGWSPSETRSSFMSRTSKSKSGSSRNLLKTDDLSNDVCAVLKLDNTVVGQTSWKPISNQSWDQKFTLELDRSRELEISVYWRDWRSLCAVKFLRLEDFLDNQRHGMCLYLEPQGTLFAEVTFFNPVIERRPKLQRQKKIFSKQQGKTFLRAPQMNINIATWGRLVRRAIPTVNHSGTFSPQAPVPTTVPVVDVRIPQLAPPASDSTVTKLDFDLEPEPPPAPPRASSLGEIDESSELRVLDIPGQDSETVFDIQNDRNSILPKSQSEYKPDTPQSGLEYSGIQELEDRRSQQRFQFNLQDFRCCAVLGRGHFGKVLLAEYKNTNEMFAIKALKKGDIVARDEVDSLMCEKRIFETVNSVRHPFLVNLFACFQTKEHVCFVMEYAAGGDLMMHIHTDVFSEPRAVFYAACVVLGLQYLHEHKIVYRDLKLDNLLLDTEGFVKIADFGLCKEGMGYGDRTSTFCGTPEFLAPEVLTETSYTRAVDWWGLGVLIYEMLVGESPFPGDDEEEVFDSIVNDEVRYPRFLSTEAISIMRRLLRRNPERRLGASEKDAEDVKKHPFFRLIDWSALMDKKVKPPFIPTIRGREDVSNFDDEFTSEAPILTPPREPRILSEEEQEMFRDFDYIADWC
# T6 sequence (P51617 whole entry): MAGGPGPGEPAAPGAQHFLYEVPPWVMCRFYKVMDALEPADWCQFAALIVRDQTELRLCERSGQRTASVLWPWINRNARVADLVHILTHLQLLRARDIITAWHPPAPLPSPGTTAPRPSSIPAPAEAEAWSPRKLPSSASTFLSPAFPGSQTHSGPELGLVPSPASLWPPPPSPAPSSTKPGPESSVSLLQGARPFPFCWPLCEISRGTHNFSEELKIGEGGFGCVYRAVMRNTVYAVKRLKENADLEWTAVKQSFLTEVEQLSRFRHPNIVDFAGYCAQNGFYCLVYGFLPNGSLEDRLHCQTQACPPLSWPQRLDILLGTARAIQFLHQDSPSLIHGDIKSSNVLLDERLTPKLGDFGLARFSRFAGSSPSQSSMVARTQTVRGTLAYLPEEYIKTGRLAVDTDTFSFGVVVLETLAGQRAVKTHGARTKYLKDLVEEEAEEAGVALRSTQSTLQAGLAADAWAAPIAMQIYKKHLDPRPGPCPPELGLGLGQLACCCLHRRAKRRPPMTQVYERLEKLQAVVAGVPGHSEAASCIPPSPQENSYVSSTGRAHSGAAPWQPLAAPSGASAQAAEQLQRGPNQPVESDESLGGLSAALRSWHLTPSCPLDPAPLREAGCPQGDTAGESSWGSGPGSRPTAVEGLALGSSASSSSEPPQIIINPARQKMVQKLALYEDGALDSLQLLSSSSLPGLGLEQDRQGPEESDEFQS
# T2 sequence (P11362 22-822): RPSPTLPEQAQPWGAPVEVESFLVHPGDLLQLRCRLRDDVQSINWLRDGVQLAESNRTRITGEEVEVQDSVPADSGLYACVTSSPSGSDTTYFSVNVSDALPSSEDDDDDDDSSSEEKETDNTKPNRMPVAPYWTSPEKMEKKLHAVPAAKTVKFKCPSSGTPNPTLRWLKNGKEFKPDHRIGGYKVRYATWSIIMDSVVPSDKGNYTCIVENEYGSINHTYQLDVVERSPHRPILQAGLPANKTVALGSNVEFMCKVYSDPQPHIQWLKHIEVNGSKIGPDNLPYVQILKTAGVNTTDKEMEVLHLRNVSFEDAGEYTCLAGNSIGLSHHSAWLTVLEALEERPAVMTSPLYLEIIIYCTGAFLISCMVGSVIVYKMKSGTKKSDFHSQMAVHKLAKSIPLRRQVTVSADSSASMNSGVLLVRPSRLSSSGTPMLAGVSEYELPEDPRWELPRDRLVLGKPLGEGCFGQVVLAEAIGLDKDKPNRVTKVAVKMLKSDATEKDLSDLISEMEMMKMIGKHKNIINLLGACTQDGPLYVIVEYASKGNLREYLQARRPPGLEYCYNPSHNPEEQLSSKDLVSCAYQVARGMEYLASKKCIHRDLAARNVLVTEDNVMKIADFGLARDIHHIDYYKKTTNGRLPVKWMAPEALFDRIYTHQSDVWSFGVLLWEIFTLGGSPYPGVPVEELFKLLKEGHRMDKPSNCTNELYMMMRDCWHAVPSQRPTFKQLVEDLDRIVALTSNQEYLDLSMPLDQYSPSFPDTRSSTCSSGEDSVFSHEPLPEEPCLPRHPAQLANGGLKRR
# T5 sequence (P21860 20-1342): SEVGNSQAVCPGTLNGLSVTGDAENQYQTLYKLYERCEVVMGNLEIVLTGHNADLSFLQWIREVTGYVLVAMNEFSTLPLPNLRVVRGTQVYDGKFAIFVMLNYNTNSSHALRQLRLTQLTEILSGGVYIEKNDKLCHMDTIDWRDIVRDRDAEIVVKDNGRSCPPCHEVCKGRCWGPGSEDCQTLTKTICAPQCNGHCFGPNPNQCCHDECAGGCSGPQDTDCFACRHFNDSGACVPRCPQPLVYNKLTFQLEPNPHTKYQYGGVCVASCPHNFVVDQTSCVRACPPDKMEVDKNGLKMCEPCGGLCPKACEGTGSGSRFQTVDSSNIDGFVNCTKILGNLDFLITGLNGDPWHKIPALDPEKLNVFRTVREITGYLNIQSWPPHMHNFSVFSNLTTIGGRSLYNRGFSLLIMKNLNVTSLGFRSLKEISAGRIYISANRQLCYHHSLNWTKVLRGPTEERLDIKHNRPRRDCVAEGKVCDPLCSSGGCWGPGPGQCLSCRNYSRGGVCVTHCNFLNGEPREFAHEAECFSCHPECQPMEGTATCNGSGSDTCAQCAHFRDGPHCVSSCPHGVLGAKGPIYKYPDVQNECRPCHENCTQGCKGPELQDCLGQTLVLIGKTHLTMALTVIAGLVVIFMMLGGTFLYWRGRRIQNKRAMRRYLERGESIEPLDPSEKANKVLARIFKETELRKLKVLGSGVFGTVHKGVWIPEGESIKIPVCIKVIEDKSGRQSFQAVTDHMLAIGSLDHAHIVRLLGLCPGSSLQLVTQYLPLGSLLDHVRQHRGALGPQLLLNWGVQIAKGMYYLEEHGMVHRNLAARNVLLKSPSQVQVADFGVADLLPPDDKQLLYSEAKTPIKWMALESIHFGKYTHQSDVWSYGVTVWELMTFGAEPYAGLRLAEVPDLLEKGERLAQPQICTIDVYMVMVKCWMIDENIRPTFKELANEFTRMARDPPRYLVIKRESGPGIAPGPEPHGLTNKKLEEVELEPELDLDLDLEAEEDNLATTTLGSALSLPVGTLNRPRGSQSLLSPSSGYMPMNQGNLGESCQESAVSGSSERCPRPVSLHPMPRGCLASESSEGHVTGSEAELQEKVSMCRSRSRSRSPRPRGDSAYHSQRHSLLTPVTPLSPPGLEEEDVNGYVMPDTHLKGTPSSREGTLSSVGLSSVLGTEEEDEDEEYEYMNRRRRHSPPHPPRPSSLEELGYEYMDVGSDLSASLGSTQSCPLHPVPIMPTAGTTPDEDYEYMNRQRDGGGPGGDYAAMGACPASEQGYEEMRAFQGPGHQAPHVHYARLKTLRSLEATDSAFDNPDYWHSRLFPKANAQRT
# T4 sequence (P12931 whole entry): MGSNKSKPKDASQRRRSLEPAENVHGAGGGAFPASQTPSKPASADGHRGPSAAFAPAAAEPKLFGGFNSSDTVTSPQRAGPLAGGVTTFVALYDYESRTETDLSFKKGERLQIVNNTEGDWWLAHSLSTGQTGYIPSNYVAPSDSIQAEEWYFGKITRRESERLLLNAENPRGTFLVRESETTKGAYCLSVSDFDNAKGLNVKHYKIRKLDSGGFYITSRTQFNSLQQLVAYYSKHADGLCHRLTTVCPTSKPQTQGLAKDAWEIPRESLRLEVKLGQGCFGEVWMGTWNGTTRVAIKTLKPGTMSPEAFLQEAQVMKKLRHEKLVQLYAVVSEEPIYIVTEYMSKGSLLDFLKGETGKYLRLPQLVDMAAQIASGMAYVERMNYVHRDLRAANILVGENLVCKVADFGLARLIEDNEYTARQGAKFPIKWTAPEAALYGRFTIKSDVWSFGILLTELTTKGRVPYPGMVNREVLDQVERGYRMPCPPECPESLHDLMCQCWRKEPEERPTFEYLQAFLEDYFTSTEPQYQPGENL
# T3 sequence (P11802 whole entry): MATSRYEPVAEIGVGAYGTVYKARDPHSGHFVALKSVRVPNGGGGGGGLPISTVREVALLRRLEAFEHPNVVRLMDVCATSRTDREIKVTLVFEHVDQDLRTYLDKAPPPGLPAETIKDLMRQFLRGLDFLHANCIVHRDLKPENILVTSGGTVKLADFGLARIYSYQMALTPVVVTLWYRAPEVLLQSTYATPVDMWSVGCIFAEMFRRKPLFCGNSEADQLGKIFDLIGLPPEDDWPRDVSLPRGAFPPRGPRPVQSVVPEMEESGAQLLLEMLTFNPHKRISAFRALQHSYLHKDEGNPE
# T8 sequence (Q8TDX7 whole entry): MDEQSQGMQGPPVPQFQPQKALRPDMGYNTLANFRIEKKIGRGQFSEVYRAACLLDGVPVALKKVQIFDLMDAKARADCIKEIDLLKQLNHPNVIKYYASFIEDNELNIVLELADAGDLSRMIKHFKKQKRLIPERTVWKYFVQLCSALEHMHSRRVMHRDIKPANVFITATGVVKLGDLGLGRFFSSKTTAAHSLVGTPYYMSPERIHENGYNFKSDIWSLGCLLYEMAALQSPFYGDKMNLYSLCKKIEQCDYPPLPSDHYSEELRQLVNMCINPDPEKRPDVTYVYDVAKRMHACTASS
structure (smiles),measurement,setting,value
"CNc1nc(Nc2ccc(C(=O)N3CCOCC3)cc2OC)nc2[nH]cc(C#N)c12 [Example 1, 2-((2-methoxy-4-(morpholine-4-carbonyl)phenyl)amino)-4-(methylamino)-7H-pyrrolo[2,3-d]pyrimidine-5-carbonitrile]",remaining binding at 1 µM,[1],88%
same,remaining binding at 1 µM,[2],97%
same,remaining binding at 1 µM,[3]; CDK4-cyclinD1,74%
same,remaining binding at 1 µM,[3]; CDK4-cyclinD3,96%
same,remaining binding at 1 µM,[3]; CDK4,61%
same,remaining binding at 1 µM,[4],90%
same,remaining binding at 1 µM,[5],68%
same,remaining binding at 1 µM,[6],75%
same,remaining binding at 1 µM,[7],53%
same,remaining binding at 1 µM,[8],100%
same,remaining binding at 1 µM,[9],97%
"CC1(Nc2nc(Nc3cnn([C@H]4CCN(C5COC5)C[C@@H]4F)c3Cl)nc3[nH]cc(C#N)c23)CC1 [Example 52, 2-((5-chloro-1-((3S,4S)-3-fluoro-1-(oxetane-3-yl)piperidine-4-yl)-1H-pyrazole-4-yl)amino)((1-methylcyclopropyl)amino)-7H-pyrrolo[2,3-d]pyrimidine-5-carbonitrile]",remaining binding at 1 µM,[1],2.5%
same,remaining binding at 1 µM,[2],42%
same,remaining binding at 1 µM,[3]; CDK4-cyclinD1,59%
same,remaining binding at 1 µM,[3]; CDK4-cyclinD3,100%
same,remaining binding at 1 µM,[3]; CDK4,100%
same,remaining binding at 1 µM,[4],4.6%
same,remaining binding at 1 µM,[5],100%
same,remaining binding at 1 µM,[6],1.4%
same,remaining binding at 1 µM,[7],78%
same,remaining binding at 1 µM,[8],97%
same,remaining binding at 1 µM,[9],85%
"CCNc1nc(Nc2ccc(C(=O)N3CCC(N4CCOCC4)CC3)cc2OC)nc2[nH]cc(C(F)(F)F)c12 [Example 104, (4-((4-(ethylamino)-5-(trifluoromethyl)-7H-pyrrolo[2,3-d]pyrimidine-2-yl)amino)-3-methoxyphenyl)(4-morpholinopiperidine-1-yl)methanone]",remaining binding at 1 µM,[1],99%
same,remaining binding at 1 µM,[2],100%
same,remaining binding at 1 µM,[3]; CDK4-cyclinD1,55%
same,remaining binding at 1 µM,[3]; CDK4-cyclinD3,53%
same,remaining binding at 1 µM,[3]; CDK4,100%
same,remaining binding at 1 µM,[4],100%
same,remaining binding at 1 µM,[5],100%
same,remaining binding at 1 µM,[6],100%
same,remaining binding at 1 µM,[7],100%
same,remaining binding at 1 µM,[8],94%
same,remaining binding at 1 µM,[9],100%
